Patent US20260256772A1, “BENZOTHIAZOLE COMPOUND AND USE THEREOF” (NANJING REJU THERAPEUTICS, INC., priority 2022, published 2026)

Tests used:
[1] = tested on: senescent cells; test: Senescent cell killing, CellTiter-Glo cell viability; format: cell-based, human, mouse; settings: activity of killing senescent cells; cell type not specified
Text: In this test example, human non-small cell lung cancer cell line (A549 cells), human embryonic lung fibroblast cell line (IMR90 cells), human retinal pigment epithelial cells (RPE cells), mouse chondrocytes, and mouse skin fibroblasts were selected. The above cells were induced by etoposide ([…]) to obtain their senescent cells. The effect of the target compounds on the viability of normal and senescent cells above was examined, thus assessing the specific killing effect of the compounds on senescent cells above.
Briefly, senescent and normal cells above were selected and plated separately (96-well plates). […] 2A to 2E.

[2] = tested on: hypertrophic scars; test: Rabbit ear hypertrophic scar model; format: in vivo, New Zealand white rabbits; settings: 150 μM, 100 μL injected into each lesion once a week, 4 injections, FIG. 12
Description: In this test example, the efficacy of the compounds of the present disclosure was tested on hypertrophic scars in a rabbit ear hypertrophic scar animal model. Briefly, 15 New Zealand white rabbits, male, 3 months old, were used. The New Zealand rabbits were anaesthetized with sodium pentobarbital and six circular full-thickness wounds with a diameter of 10 mm were made on the ventral surface of each ear by removing the epidermis, dermis and perichondrium to expose the cartilage. The rabbits were randomly divided into control, RX001 experimental and RX301 experimental groups. On postoperative day 14, after complete re-epithelialization of the wound surface, the compound (150 μM, 100 μL, dissolved in DMSO solution) or negative control DMSO 100 μL was injected into the center of each lesion from the wound edge once a week for a total of 4 injections. Improvement of scar formation by the drugs was assessed by SEI (Scar Excess Index).

[3] = tested on: diabetic retinopathy; test: Mouse model of diabetic retinopathy (STZ), retinal Evans blue penetration assay; format: in vivo; settings: intravitreal (IVT), 1 μL of 200 μM at 8 and 9 weeks after STZ, FIG. 4
Description: The efficacy of the compounds of the present disclosure was studied in a mouse model of diabetic retinopathy by multiple administrations of streptozotocin (STZ). C57BL/6J mice at 6 to 7 weeks were weighed and their baseline blood glucose was measured (Sino). STZ (Sigma-Alderich) was injected intraperitoneally into the mice at 55 mg/Kg for five consecutive days. Age-matched controls were injected with buffer only. Blood glucose was measured again one week after the last STZ injection. 1 μL of the test compound (200 μM, a suspension formulated in 0.015% polysorbate 80, 0.2% sodium phosphate, 0.75% sodium chloride, pH 7.2) was injected intravitreally into the STZ-treated diabetic C57BL/6J mice at 8 and 9 weeks after STZ administration. 10 weeks after STZ treatment, the retinal Evans blue penetration assay was performed.

[4] = tested on: hepatic fibrosis; test: Hepatic fibrosis mouse model (CCl4); format: in vivo, C57BL/6N mice; settings: FIG. 9; for serum alanine aminotransferase (ALT) levels / serum aspartate aminotransferase (AST) levels: intraperitoneal (IP) injection twice a week from third week of modelling; for pathology scores: intraperitoneal (IP) injection, liver Masson staining
Description: In this test example, the efficacy of the compounds of the present disclosure was tested on hepatic fibrosis in an animal model of hepatic fibrosis. Briefly, C57BL/6N mice, male, 7 to 8 weeks old, 24 to 28 g of body weight, were used. The mouse model of hepatic fibrosis was induced by intraperitoneal injection of CCl4 solution at a dosage of 1 mL/kg, with a dosing frequency of 2 times/week, and a modelling cycle of 6 weeks. Dosing via intraperitoneal injection was started starting from the third week of modelling twice a week. At the end of the test, serum was collected, and liver tissue was taken for Masson staining index assay.

[5] = tested on: osteoarthritis; test: Osteoarthritis animal model; format: in vivo, mice; settings: intra-articular injection, FIG. 7
Description: In this test example, the efficacy of the compounds of the present disclosure was tested on osteoarthritis in an osteoarthritis animal model.
The osteoarthritis animal model was constructed by the following steps. The mice were anesthetized with isoflurane, and fixed. The hair on the right hind limb of the mice was shaved and the skin was disinfected with alcohol, and the skin of the joints was cut. Under an optical microscope, the inside of the right knee joint was incised longitudinally with a blade, without cutting the patellar ligament. The patellar ligament was pulled to one side with constant hemostasis by compression with sterile cotton swabs such that the joint cavity was fully exposed. Saline was added dropwise in time to avoid the drying up of the joint cavity. The excess muscle tissue was gently separated with a blunt forceps to expose the meniscus ligament. The anterior cruciate ligament was found in the depth of the joint cavity and cut with a micro scissor. Then the wound was disinfected with penicillin solution, the muscle was sutured with sterile needle and thread, and the skin tissue was finally sutured. The efficacy of the drug was determined by intra-articular injection administration. At the endpoint of the test, continued pain threshold of the plantar was detected, and the bone joints were stained with safranin fast green.

[6] = tested on: renal fibrosis; test: Renal fibrosis animal model (ureter ligation); format: in vivo, C57BL/6J mice; settings: FIG. 11; for serum creatinine (Cr) levels / urea nitrogen (BUN) levels: intraperitoneal (IP) injection from 2nd week of modelling; for pathology: intraperitoneal (IP) injection, kidney Masson staining
Description: In this test example, the efficacy of the compound of the present disclosure was tested on renal fibrosis in an animal model of renal fibrosis. Briefly, C57BL/6J mice, male, 7 to 8 weeks old, were used. The mice were anaesthetized, made to lie supine on a foam board, and disinfected with iodophor, and a longitudinal incision was made in the skin in the middle of the lower abdomen to locate the white line of the abdominal muscle, where the abdominal muscle, fascia and peritoneal layer were dissected. After exposing the surgical field, the kidneys were exposed by pushing the stomach and mesentery of the mice to the right side with a gauze soaked with saline. The model of renal fibrosis was constructed by locating the transparent ureter from the renal pelvis along the renal artery, separating the left ureter, ligating the upper ⅓ of the left ureter, suturing the incision layer by layer, and finally disinfecting with iodophor. Dosing via intraperitoneal injection started from the 2nd week of modelling. At the end of the experiment, the mouse serum was collected, and kidney tissues were taken for Masson staining index assay.

[7] = tested on: wet-age-related macular degeneration; test: CNV animal model of wet-age-related macular degeneration; format: in vivo, mice; settings: intravitreal (IVT), FIG. 5
Description: In this test example, the efficacy of the compounds of the present disclosure was tested on wet-age-related macular degeneration in a CNV animal model.
Male mice were administered 0.5% probacaine hydrochloride (Alcon) for local anesthesia, and 1% tropicamide to dilate the pupils of the mice. Laser cauterization was performed using a laser photocoagulator (Novus Varia, LUMENIS) with a slit lamp delivery system. And artificially torn adherent glass coverslips were used as contact lenses. Bleeding spots caused by lasers were not included in the statistics. In each experimental group, six mice were analyzed with four impacts per eye to overcome inherent variability.

[8] = tested on: aging skin; test: Aging skin, naturally aging mouse model; format: in vivo, C57bl/6J mice; settings: skin application twice a week for 6 consecutive weeks, FIG. 10
Description: In this test example, aged female C57bl/6J mice (22 months old) were used. The drug was administered by skin application twice a week for 6 consecutive weeks.

Structure (SMILES) | IC50 [1] [µM] | scar excess index [2] | vascular permeability, choroidal vascular leakage [3] | vascular permeability, retinal vascular leakage [3] | serum alanine aminotransferase (ALT) levels [4] | serum aspartate aminotransferase (AST) levels [4] | pathology scores [4] | pathology scores of safranin fast green staining [5] | plantar mechanical pain threshold [5] | serum creatinine (Cr) levels [6] | urea nitrogen (BUN) levels [6] | pathology [6] | fluorescence intensity indicators [7] | epidermal thickness scores of the skins [8]
CCN1CCN(C(=O)c2nc(N3CCc4cccc(C(=O)Nc5nc6ccccc6s5)c4C3)ccc2-c2cnn(CC34CC5CC(CC(C5)C3)C4)c2C)CC1 [RX001] | 0.2 to 1 | statistically significant improvement | improved | improved | statistically significant improvements | statistically significant improvements | statistically significant improvements | statistically significant improvements | statistically significant improvements | statistically significant improvements | statistically significant improvements | statistically significant improvements | statistically significant improvements | statistically significant improvements
Cc1c(-c2ccc(N3CCc4cccc(C(=O)Nc5nc6ccccc6s5)c4C3)nc2C(=O)N2CCC(CCOP(=O)(O)O)CC2)cnn1CC12CC3CC(CC(C3)C1)C2 [RX301] | < 0.2 | statistically significant improvement | improved | improved | statistically significant improvements | statistically significant improvements | statistically significant improvements | statistically significant improvements | statistically significant improvements | statistically significant improvements | statistically significant improvements | statistically significant improvements | statistically significant improvements | statistically significant improvements
